{
  "source": "patent US20050054586A1",
  "about": "“Treatment of ophthalmic disorders” (priority 2003, published 2005)",
  "assay_type_in_all_cases": "in vivo",
  "key": {"[1]": {"system": "human patients with type-1 diabetes and affected by non-proliferative diabetic retinopathy", "assay": "Clinical study: retinal hemorrhages (stereoscopic color fundus photographs)", "conditions": "one tablet daily, 100 mg cloricromene hydrochloride; start of study versus one-year; 20 patients", "procedure": "(§1) A clinical study was conducted in order to test the safety and efficacy of the compounds for treating ophthalmic disorders. The study included 40 human patients with type-1 diabetes and affected by non-proliferative diabetic retinopathy. Twenty of the patients received one tablet daily containing cloricromene hydrochloride (100 mg), whereas twenty of the patients formed a control group and received no treatment. Patients were randomly assigned either to receive cloricromene or to receive no treatment. The patients included males and females over 45 years of age assessed with type-1 diabetes mellitus and non-proliferative retinopathy assessed by fundus photography and fluoroscein angiography. For patients with bilateral disease, both eyes were evaluated. For patients with unilateral disease, the affected eye served as the study eye. Excluded from the study were subjects: affected with proliferative diabetic retinopathy; having visual acuity less than 2/10; with a history of renal failure; or receiving treatment with anti-coagulants, platelet anti-aggregants, or fibrinolytics.\n(§2) The results summarized in the following tables are based on start of study versus one-year study period. Visual acuity was assessed by the patients' use of an eye chart. The presence of hemorrhaging, hard exudates or vascular leakage in the retina was evaluated as a means of grading degree of retinal lesion. Hemorrhaging and hard exudates were assessed primarily by observing the stereoscopic color fundus photographs of the retain. Vascular leakage was assessed primarily by fluorescein staining."}, "[2]": {"system": "human patients with type-1 diabetes and affected by non-proliferative diabetic retinopathy", "assay": "Clinical study: retinal vascular leakage (fluorescein staining)", "conditions": "one tablet daily, 100 mg cloricromene hydrochloride; start of study versus one-year; 20 patients", "procedure": "as §1, §2"}, "[3]": {"system": "human patients with type-1 diabetes and affected by non-proliferative diabetic retinopathy", "assay": "Clinical study: hard exudates in the retina (stereoscopic color fundus photographs)", "conditions": "one tablet daily, 100 mg cloricromene hydrochloride; start of study versus one-year; 20 patients", "procedure": "as §1, §2"}, "[4]": {"system": "human patients with type-1 diabetes and affected by non-proliferative diabetic retinopathy", "assay": "Clinical study: visual acuity assessed by eye chart", "conditions": "one tablet daily, 100 mg cloricromene hydrochloride; start of study versus one-year; 20 patients", "procedure": "as §1, §2"}, "[5]": {"system": "human patients with type-1 diabetes and affected by non-proliferative diabetic retinopathy", "assay": "Clinical study: overall progression of retinal damage", "conditions": "one tablet daily, 100 mg; one-year study period; versus untreated controls", "procedure": "as §1, with “Excluded from the study were subjects: affected with proliferative diabetic retinopathy; having visual acuity less than 2/10; with a history of renal failure; or receiving treatment with anti-coagulants, platelet anti-aggregants, or fibrinolytics.” left out\nas §2"}},
  "data": [
    {"compound": "CCOC(=O)COc1ccc2c(C)c(CCN(CC)CC)c(=O)oc2c1Cl", "note": "[Cloricromene, cloricromene]", "values": [
      {"measurement": "Retinal Hemorrhages: Improved, number of patients (%)", "setting": "[1]", "value": "13 (65%)"},
      {"measurement": "Retinal Hemorrhages: Stable, number of patients (%)", "setting": "[1]", "value": "6 (30%)"},
      {"measurement": "Retinal Hemorrhages: Worse, number of patients (%)", "setting": "[1]", "value": "1 (5%)"},
      {"measurement": "Vascular Leakage: Improved, number of patients (%)", "setting": "[2]", "value": "3 (15%)"},
      {"measurement": "Vascular Leakage: Stable, number of patients (%)", "setting": "[2]", "value": "16 (80%)"},
      {"measurement": "Vascular Leakage: Worse, number of patients (%)", "setting": "[2]", "value": "1 (5%)"},
      {"measurement": "Hard Exudates: Improved, number of patients (%)", "setting": "[3]", "value": "14 (70%)"},
      {"measurement": "Hard Exudates: Stable, number of patients (%)", "setting": "[3]", "value": "6 (30%)"},
      {"measurement": "Hard Exudates: Worse, number of patients (%)", "setting": "[3]", "value": "0 (0%)"},
      {"measurement": "Visual Acuity: Improved, number of patients (%)", "setting": "[4]", "value": "11 (55%)"},
      {"measurement": "Visual Acuity: Stable, number of patients (%)", "setting": "[4]", "value": "8 (40%)"},
      {"measurement": "Visual Acuity: Worse, number of patients (%)", "setting": "[4]", "value": "1 (5%)"},
      {"measurement": "progression of retinal damage in diabetic patients", "setting": "[5]", "value": "effective in delaying the progression of retinal damage"}
    ]}
  ]
}
